# Measurements taken from PMC12860872, “Preclinical evaluation of DOTAGA.Glu.(FAPI)2 and DO3A.Glu.(FAPI)2 as theranostics with human dosimetry extrapolation to lutetium-177 and terbium-161 analogs” (European Journal of Nuclear Medicine and Molecular Imaging, 2025).
# Where “and” joins values, the source holds several entries; their conditions need not be identical. Equal entries are not always repeated.
# Key:
# [1] = Blood clearance kinetics in healthy mice; format: in vivo, mouse; settings: i.v., Two-Phase Decay Model
# Method: Blood samples were collected from the facial vein at 1, 3, 5, 7, 10, 15, 20, 30, 45, 60, 240, and 1440 min p.i., weighed, and measured for radioactivity using a γ-counter. Results were expressed as % I.A./g of blood and plotted over time. The initial and terminal half-lives were determined using Two-Phase Decay Model. The biological half-lives of selected organs were calculated from the biodistribution data using One-Phase Decay Model (GraphPad Prism 8).
# FAP = target: T1, FAP (Homo sapiens, UniProt Q12884); experiment: Saturation binding on FAP+ CAFs; settings: for Kd: 0.1 to 10 nM radioligand
# T1 construct: the CAF cells overexpressing FAP were seeded at a density of 0.8-1 million cells per well; host or cells: hTERT PF179T prostate cancer-associated fibroblasts
# T1 sequence (Q12884 1-760): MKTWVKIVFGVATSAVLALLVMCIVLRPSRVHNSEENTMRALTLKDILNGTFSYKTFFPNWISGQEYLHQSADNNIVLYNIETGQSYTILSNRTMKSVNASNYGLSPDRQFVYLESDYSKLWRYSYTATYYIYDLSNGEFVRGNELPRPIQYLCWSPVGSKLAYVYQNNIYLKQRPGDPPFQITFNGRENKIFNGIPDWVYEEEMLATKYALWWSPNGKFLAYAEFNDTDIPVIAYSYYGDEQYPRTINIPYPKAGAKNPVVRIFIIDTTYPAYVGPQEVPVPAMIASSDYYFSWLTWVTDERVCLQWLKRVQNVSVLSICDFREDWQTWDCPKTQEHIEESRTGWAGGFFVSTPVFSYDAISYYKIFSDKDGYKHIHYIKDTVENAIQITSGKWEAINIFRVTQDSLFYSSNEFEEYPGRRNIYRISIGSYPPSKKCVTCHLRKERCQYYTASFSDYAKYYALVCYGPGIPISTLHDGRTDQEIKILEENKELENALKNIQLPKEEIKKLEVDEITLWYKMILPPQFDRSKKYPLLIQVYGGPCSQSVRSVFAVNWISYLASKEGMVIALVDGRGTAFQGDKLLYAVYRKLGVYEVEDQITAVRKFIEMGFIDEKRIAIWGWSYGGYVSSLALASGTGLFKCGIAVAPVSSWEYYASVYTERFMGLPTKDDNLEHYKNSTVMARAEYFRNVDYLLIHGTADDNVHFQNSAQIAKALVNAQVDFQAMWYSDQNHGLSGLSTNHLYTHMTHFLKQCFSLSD
# Method: (§1) For receptor saturation studies, FAP^+ CAFs were incubated with 0.1 to 10 nM of the radioligands. For internalization studies, approximately 2.5 pmol of the radioligands were added to CAFs followed by incubation for 15, 30, 60, 90, 120, 180 and 240 min for the ^68Ga-labeled or 30, 60, 120, 240 and 360 min for the ^177Lu-labeled radioligands at 37 °C, 5% CO2. For the externalization studies, approximately 2.5 pmol of the ^177Lu-labeled radioligands were added to CAFs followed by incubation for 2 h at 37 °C, 5% CO2. The amount of externalized activity was measured at 0, 10, 20, 30, 60, 120, 240, and 1440 min (Supplemental Data).
# For receptor saturation analysis, the CAF cells overexpressing FAP were seeded at a density of 0.8-1 million cells per well in 6-well plates, pre-coated with BME (Cultrex Reduced Growth Factor Basement Membrane Extract, RGF BME, R&D System, Minneapolis, USA) to enhance cell attachment. The cells were incubated overnight with medium (EMEM supplemented and containing 10% FBS, 100 U/mL penicillin and 100 μg/mL streptomycin). The next day, the medium was removed and the cells were incubated for 30 minutes at 37 °C, with 0.8 mL of fresh medium. Afterwards, the plates were placed on ice for 30 minutes followed by incubation with increasing concentrations of ^68/natGa- and ^177/natLu-labelled DOTAGA.Glu.(FAPI)2 and DO3A.Glu.( FAPI)2 (0.1-10 nM final concentration in the wells). After the addition of the radioligands, the cells were incubated for 120 minutes at 4 °C. Non-specific binding was determined in the presence of UAMC1110 at a final concentration of 1 μM. After the completion of the incubation, the cells were washed twice with ice-cold PBS, followed by solubilization with 1 M NaOH. The cell-associated radioactivity was measured using a gamma-counter. Specific binding was plotted against the total molar concentration of the added radiotracer. The Kd values and the concentration of the radioligand required to saturate the receptors (Bmax) were determined by nonlinear regression using GraphPad (Prism 8 Graph Pad Software, San Diego, CA). For all the cell studies the values are normalized for 1x10^6 cells per well and all data are from two independent experiments with triplicates in each experiment.
# FAP+ CAFs = experiment: Externalization from CAFs; format: cell-based, human; settings: after 24 h at 37 °C
# Method: as §1
# After the completion of the 2 hours of incubation, the medium was removed and CAF cells were washed with 1 mL of cold PBS (x2). The cells were then exposed to an acid wash with glycine buffer, as described above, to dissociate membrane-bound radioligand, and the fractions were collected. Fresh medium (1 mL/well) was added to the cells and were incubated at 37 °C. At different time points (10, 20, 30, 60, 120, 240 and 1440 minutes) the external medium was removed (followed by two washing steps with cold PBS). […] The radioactivity of the culture medium, the membrane-bound, the internalized and the externalized fractions were measured in a gamma-counter. The externalized fraction of radioactivity was expressed as the percentage of the total internalized amount.
# [2] = listed as 177/natLu-DOTAGA.Glu.(FAPI)2
# [3] = listed as 177/natLu-DO3A.Glu.(FAPI)2
Blood half life (initial) [1],Blood half life (terminal) [1],Kd (FAP; [2]),Bmax (FAP; [2]),Kd (FAP; [3]),Bmax (FAP; [3]),Structure (SMILES),initially internalized activity released (FAP+ CAFs)
2.8 min,4.692 h and 4.7 h,0.7 nM and 0.68 nM,0.4 ± 0.02 nM and 0.36 ± 0.02 nM,–,–,N#C[C@@H]1CC(F)(F)CN1C(=O)CNC(=O)c1ccnc2ccc(OCCCCNC(=O)CC[C@H](NC(=O)CCC(C(=O)O)N3CCN(CC(=O)[O-])CCN(CC(=O)[O-])CCN(CC(=O)[O-])CC3)C(=O)NCCCCOc3ccc4nccc(C(=O)NCC(=O)N5CC(F)(F)C[C@H]5C#N)c4c3)cc12.[177Lu+3] (stereo partly shown) [[^177Lu]Lu-DOTAGA.Glu.(FAPI)2],~ 40%
1.3 min,4.172 h and 4.17 h,–,–,0.7 nM and 0.72 nM,0.4 ± 0.02 nM and 0.37 ± 0.02 nM,N#C[C@@H]1CC(F)(F)CN1C(=O)CNC(=O)c1ccnc2ccc(OCCCCNC(=O)CC[C@H](NC(=O)CN3CCN(CC(=O)[O-])CCN(CC(=O)[O-])CCN(CC(=O)[O-])CC3)C(=O)NCCCCOc3ccc4nccc(C(=O)NCC(=O)N5CC(F)(F)C[C@H]5C#N)c4c3)cc12.[177Lu+3] [[^177Lu]Lu-DO3A.Glu.(FAPI)2],~ 46%
